Measured values from patent US20100124537A1 (priority 2007, published 2010).
“Also recorded” adds a separate entry of the source. Like-named read-outs stand apart in the source and are kept apart here.

Legend:
H. pylori, strain 119/95 [1] = assay: Mice infectious model with H. pylori, three intragastric doses of alpha-ketoglutaric acid salts, culture on GAB-CAMP agar (Example 2); type: in vivo, BALB/cA mice; settings: for H. pylori colonies cultured from gastric mucosa: infected mice treated 3 consecutive days, 8 days after infection (Group III B); for effect on colonisation of gastric mucosa by H. pylori: three intragastric administrations on 3 consecutive days, started 8 days after last infective dose
Experimental: Eight days after the last challenge, sixteen mice were inoculated intragastrically through the tube for three successive days with 0.2 ml of 30 mM solution of salts of alpha-ketoglutaric acid (group III B). The remaining eight mice were sham-treated with 0.2 ml of 0.01 M PBS (group III) according to the procedure with group III.
Eight days after above treatment sixteen mice were inoculated with the tube for three consecutive days with salts of […] (0.2 ml, concentration 30 mM) (group IV B). The remaining eight mice were treated with 0.2 ml 0.01 M PBS (group IV).
Stomach and blood were samples were collected for the further studies.
(§1) DNA was also isolated to perform PCR with primers (5′-[…]-3′ and 5′-[…]-3′) recognizing 16S rDNA fragment in DNA of bacteria from Helicobacter genus. Afterwards PCR products in size 470 by were separated according to denaturating gradient gel electrophoresis technique (DGGE) and sequenced. […] Electrophoresis run at a temp of 60° C. in 125 V during 16 h.

[2] = test system: bacteria from Helicobacter genus (16S rDNA); assay: 16S rDNA PCR, DGGE and sequencing of stomach mucosa homogenates (Example 2); type: in vivo, BALB/cA mice; settings: for H. pylori DNA / sequences specific for H. pylori in PCR products: infected mice treated with alpha-ketoglutarate (Group III B), ethidium bromide staining
Experimental: as §1

[3] = Morphology of stomach and small intestine mucosa in mice given alpha-ketoglutarate; type: in vivo; settings: mice infected with H. pylori and following inoculation with alpha-ketoglutarate
lactic acid bacteria = assay: Lactic acid bacteria isolated from scraped stomach mucosa (antral part); type: in vivo; settings: animals tested, including mice infected with H. pylori and then inoculated with alpha-ketoglutarate
H. pylori infection = assay: Volunteers with confirmed H. pylori infection taking the calcium salt with a milk drink (Example 4); type: in vivo, human; settings: after two-week treatment
H. pylori, strain 119/95 [4] = test system: H. pylori, strain 119/95
Experimental: Laboratory experimental animals: twenty eight 6 week-old BALB/cA (female) mice weighing 25±2 g (FIG. 1). […] Two weeks after the last challenge, seven mice were inoculated intragastrically for nine successive days by the same method with a solution of calcium or sodium salt of alpha-ketoglutaric acid (0.2 ml, at concentration 30 mM) (group I A). The remaining seven mice were sham-treated with 0.01 M phosphorate buffer—PBS (group I B) as animals from group I A.
Further fourteen mice from group II A and II B were treated with 0.2 ml PBS according to the scheme operating by the infection of the animals with H. pylori. Two weeks after the above treatment seven mice were continuously inoculated with PBS (0.2 ml) for three consecutive days. The remaining seven mice were treated with a solution of salts of alpha-ketoglutaric acid (0.2 ml, concentration 30 mM) (group II A).
On the 30th day of the experiment all mice were sacrificed using CO2. For further analyses blood and stomach samples from mice infected with H. pylori with or without the following inoculation with salts of alpha-ketoglutaric acid were collected. In this experiment the relationship between colonisation level of mouse stomach mucosa (n=28) by H. pylori and the mice treated intragastrically with salts of alpha-ketoglutaric acid were studied in accordance with the time regime as described above.
37° C., under microaerophilic conditions for 7-10 days. From the half of the antrum gastric mucosa was scraped off and mixed with 500 μl PBS sterilized. After homogenate balancing it was noticed that the amount of the scraped mucosa from the half of the antrum was generally between 40 μg a 50 μg. For calculation of number of H. pylori cells, a 100 μl of gastric mucosa homogenate was smeared onto GAB-CAMP agar plates and incubated at temp. 37° C., for 5-10 days, under microaerophilic conditions. Homogenized mucosa samples from each mouse were examined in triplicate. The results are presented as the mean value±SD. The presence of H. pylori was identified by colony morphology and urease-, oxidase- and catalase tests, as well as by morphological examination of cells by Gram-staining.

gastrin = settings: infected with H. pylori then alpha-ketoglutarate, versus control group (PBS); p<0.01
[5] = 2-3 years old rats with low initial blood AKG (below 0.1 ug/ml), feed additive; controls did not survive; cited from earlier work
[6] = PBS + AKG (Group IV B), non-infected mice
[7] = listed as salts of alpha-ketoglutaric acid
[8] = PBS + AKG (Group II A), non-infected mice

O=C(O)CCC(=O)C(=O)O [AKG, alpha-ketoglutarate]
H. pylori cultivated: Number of mice infected/in group (H. pylori, strain 119/95 [1]; H. pylori + AKG (Group III B), 0.2 ml 30 mM intragastrically for 3 days starting 8 days after last challenge, day 20): 0/16
H. pylori cultivated: Number of bacteria (cfu)/mouse (H. pylori, strain 119/95 [1]; H. pylori + AKG (Group III B), H. pylori + PBS gave 4.3 × 10^2 ± 5.0 × 10^1): 0 cfu/mouse
H. pylori cultivated: Number of bacteria (cfu)/mouse (H. pylori, strain 119/95 [1]; [6]): 0 cfu/mouse
H. pylori cultivated: Number of mice infected/in group (H. pylori, strain 119/95 [1]; [6]): 0/16
H. pylori colonies cultured from gastric mucosa (H. pylori, strain 119/95 [1]): no H. pylori colonies were found
H. pylori colonies cultured from gastric mucosa (H. pylori, strain 119/95 [1]; [7]): not found; also recorded: no H. pylori colony was cultured
effect on colonisation of gastric mucosa by H. pylori (H. pylori, strain 119/95 [1]): completely stopped colonisation and fully eradicated H. pylori
effect on colonisation of gastric mucosa by H. pylori (H. pylori, strain 119/95 [1]; [7]): total inhibitory effect on bacterial colonisation and fully eradication of H. pylori bacteria from gastric mucosa
16S rDNA PCR - Helicobacter genus: Number of mice with H. pylori DNA/in group ([2]; H. pylori + AKG (Group III B)): 0/16
16S rDNA PCR - Helicobacter genus: Number of mice with H. pylori DNA/in group [2, 6]: 0/16
H. pylori DNA / sequences specific for H. pylori in PCR products [2]: no H. pylori DNA was found
H. pylori DNA / sequences specific for H. pylori in PCR products [2, 7]: not found
morphological changes in thickening of mucosa in stomach and small intestine, villus width and crypt depth [3]: no morphological changes
changes in the amount of lactic acid bacteria isolated from scraped stomach mucosa (antral part) (lactic acid bacteria): no changes
time for which lack of dyspepsia symptoms was maintained after end of administration (H. pylori infection): one
H. pylori cultivated: Number of mice infected/in group (H. pylori, strain 119/95 [4]; H. pylori + AKG (Group I A), 0.2 ml 30 mM intragastrically for 9 days starting 2 weeks after last challenge, day 30): 7/7
H. pylori cultivated: Number of bacteria (cfu)/mouse (H. pylori, strain 119/95 [4]; H. pylori + AKG (Group I A), mean ± SD, H. pylori + PBS gave 7.8 × 10^2 ± 5.0 × 10^1): 3.8 × 10^2 ± 5.0 × 10^1 cfu/mouse
H. pylori cultivated: Number of bacteria (cfu)/mouse (H. pylori, strain 119/95 [4]; [8]): 0 cfu/mouse
H. pylori cultivated: Number of mice infected/in group (H. pylori, strain 119/95 [4]; [8]): 0/7
number of colonies (mean±SD) isolated from antral/pyloric part of gastric mucosa (H. pylori, strain 119/95 [4]; infected mice treated 9 days (Group I A), infected only 7.8×10^2±5.0×10^1): 3.8×10^2±5.0×10^1
reduction of degree of gastric mucosa colonisation by H. pylori (H. pylori, strain 119/95 [4]; nine intragastric administrations on 9 consecutive days, started 14 days after last infective dose, versus mice infected only): 49%
reduction in the number of gastrin-producing cells in the pyloric region of the stomach glands (gastrin): 17%
differences in number of CCK-producing cells in the small intestine (cholecystokinin (CCK); H. pylori + alpha-ketoglutarate versus alpha-ketoglutarate only, p=0.25): no significant differences
decrease in number of CCK producing cells in the small intestine (cholecystokinin (CCK); animals treated with alpha-ketoglutarate versus non-infected mice given only PBS, tendency, p=0.1): 30%

O.O.O=C([O-])CCC(=O)C(=O)[O-].[Na+].[Na+] [Na2AKG*2H2O]
survival of the experiment [5]: survived the experiment
